Data taken from ChEMBL document CHEMBL4007467, “Effects of 6-paradol, an unsaturated ketone from gingers, on cytochrome P450-mediated drug metabolism” (Bioorg Med Chem Lett, 2017).

Tests used:
Type in all cases: ADME
Cytochrome P450 1A2 [1] = biological target: T1, Cytochrome P450 1A2 (Homo sapiens, UniProt P05177); test: Inhibition of CYP1A2 in human liver microsomes using phenacetin as substrate preincubated for 10 mins followed by NADPH addition measured after 10 mins
T1 sequence (P05177 whole entry): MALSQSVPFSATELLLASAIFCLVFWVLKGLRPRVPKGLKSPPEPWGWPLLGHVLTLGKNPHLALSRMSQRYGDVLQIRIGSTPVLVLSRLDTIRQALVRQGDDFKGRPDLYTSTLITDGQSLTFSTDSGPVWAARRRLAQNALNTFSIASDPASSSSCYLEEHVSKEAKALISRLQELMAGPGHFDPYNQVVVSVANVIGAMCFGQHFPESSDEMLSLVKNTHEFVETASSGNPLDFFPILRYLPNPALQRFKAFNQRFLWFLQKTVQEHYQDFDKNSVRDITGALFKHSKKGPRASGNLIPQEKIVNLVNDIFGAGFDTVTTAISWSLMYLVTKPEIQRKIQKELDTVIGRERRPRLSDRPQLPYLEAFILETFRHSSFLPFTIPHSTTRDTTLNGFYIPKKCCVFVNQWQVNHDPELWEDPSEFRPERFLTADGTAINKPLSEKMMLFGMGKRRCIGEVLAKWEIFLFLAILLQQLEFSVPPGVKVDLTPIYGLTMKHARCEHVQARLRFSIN

Cytochrome P450 2B6 = biological target: T2, Cytochrome P450 2B6 (Homo sapiens, UniProt P20813); test: Inhibition of CYP2B6 in human liver microsomes using bupropion as substrate preincubated for 10 mins followed by NADPH addition measured after 20 mins
T2 sequence (P20813 whole entry): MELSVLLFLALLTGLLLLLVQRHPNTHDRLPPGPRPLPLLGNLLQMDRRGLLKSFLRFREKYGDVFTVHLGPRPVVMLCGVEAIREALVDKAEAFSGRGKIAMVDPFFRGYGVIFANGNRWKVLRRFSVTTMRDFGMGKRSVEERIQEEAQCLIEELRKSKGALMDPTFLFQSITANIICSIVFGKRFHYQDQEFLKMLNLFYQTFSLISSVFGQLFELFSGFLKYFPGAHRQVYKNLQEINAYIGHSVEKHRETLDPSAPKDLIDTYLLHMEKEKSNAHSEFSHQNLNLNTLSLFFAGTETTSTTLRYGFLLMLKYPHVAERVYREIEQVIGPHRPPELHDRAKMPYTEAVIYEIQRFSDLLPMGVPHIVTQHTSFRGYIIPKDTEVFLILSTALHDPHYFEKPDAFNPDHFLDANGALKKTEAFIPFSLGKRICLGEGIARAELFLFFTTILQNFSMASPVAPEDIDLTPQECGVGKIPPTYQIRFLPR

Cytochrome P450 2C8 = biological target: T3, Cytochrome P450 2C8 (Homo sapiens, UniProt P10632); test: Inhibition of CYP2C8 in human liver microsomes using amodiaquin as substrate preincubated for 10 mins followed by NADPH addition measured after 10 mins
T3 sequence (P10632 whole entry): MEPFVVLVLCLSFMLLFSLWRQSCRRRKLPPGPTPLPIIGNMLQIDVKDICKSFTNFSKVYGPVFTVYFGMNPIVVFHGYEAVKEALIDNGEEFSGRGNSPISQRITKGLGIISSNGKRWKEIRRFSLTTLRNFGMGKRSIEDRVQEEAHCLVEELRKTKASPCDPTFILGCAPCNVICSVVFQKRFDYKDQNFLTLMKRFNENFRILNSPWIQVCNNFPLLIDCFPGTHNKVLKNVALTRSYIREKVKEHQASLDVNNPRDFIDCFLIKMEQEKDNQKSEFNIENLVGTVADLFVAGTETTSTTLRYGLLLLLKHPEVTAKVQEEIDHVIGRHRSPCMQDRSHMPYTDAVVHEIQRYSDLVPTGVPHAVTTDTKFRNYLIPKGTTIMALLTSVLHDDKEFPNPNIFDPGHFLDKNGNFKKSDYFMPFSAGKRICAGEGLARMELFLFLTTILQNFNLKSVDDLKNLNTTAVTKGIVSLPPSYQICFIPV

Cytochrome P450 2C9 [2] = biological target: T4, Cytochrome P450 2C9 (Homo sapiens, UniProt P11712); test: Inhibition of CYP2C9 in human liver microsomes using diclofenac as substrate preincubated for 10 mins followed by NADPH addition measured after 7 mins
Cytochrome P450 2C19 [3] = biological target: T5, Cytochrome P450 2C19 (Homo sapiens, UniProt P33261); test: Inhibition of CYP2C19 in human liver microsomes using (S)-mephenytoin as substrate preincubated for 10 mins followed by NADPH addition measured after 40 mins
Cytochrome P450 3A4 [4] = biological target: T6, Cytochrome P450 3A4 (Homo sapiens, UniProt P08684); test: Inhibition of CYP3A4 in human liver microsomes using testosterone as substrate preincubated for 10 mins followed by NADPH addition measured after 10 mins
Cytochrome P450 2A6 = biological target: T7, Cytochrome P450 2A6 (Homo sapiens, UniProt P11509); test: Inhibition of CYP2A6 in human liver microsomes using Coumarin as substrate preincubated for 10 mins followed by NADPH addition measured after 15 mins
T7 sequence (P11509 whole entry): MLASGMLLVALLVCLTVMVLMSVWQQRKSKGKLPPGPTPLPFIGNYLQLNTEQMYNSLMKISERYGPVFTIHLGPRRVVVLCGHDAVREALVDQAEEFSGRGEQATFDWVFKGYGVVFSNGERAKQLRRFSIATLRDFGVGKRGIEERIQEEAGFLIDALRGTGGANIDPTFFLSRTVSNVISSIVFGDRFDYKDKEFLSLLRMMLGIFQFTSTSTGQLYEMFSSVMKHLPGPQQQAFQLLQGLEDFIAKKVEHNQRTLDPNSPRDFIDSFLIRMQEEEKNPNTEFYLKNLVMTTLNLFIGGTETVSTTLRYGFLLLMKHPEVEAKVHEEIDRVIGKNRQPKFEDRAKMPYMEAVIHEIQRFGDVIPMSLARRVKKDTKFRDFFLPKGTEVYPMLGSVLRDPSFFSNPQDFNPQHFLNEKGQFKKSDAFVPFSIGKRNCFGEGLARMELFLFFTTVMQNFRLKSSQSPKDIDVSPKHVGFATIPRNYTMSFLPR

Cytochrome P450 2D6 [5] = biological target: T8, Cytochrome P450 2D6 (Homo sapiens, UniProt P10635); test: Inhibition of CYP2D6 in human liver microsomes using dextromethorphan as substrate preincubated for 10 mins followed by NADPH addition measured after 15 mins
Cytochrome P450 2E1 [6] = biological target: T9, Cytochrome P450 2E1 (Homo sapiens, UniProt P05181); test: Inhibition of CYP2E1 in human liver microsomes using chlorzoxazone as substrate preincubated for 10 mins followed by NADPH addition measured after 20 mins
Cytochrome P450 2C9 [7] = biological target: T4, Cytochrome P450 2C9; test: Inhibition of recombinant human CYP2C9 expressed in baculosomes using Vivid OOMR substrate red measured every 30 sec for 30 mins by fluorescence assay
Cytochrome P450 2C19 [8] = biological target: T5, Cytochrome P450 2C19; test: Inhibition of recombinant human CYP2C19 expressed in baculosomes using Vivid EOMCC substrate blue measured every 30 sec for 30 mins by fluorescence assay
Cytochrome P450 3A4 [9] = biological target: T6, Cytochrome P450 3A4; test: Inhibition of recombinant human CYP3A4 expressed in baculosomes using Vivid DBOMF substrate green measured every 30 sec for 30 mins by fluorescence assay
Cytochrome P450 3A4 [10] = biological target: T6, Cytochrome P450 3A4; test: Inhibition of recombinant human CYP3A4 expressed in baculosomes using Vivid BOMR substrate red measured every 30 sec for 30 mins by fluorescence assay
Cytochrome P450 3A4 [11] = biological target: T6, Cytochrome P450 3A4; test: Inhibition of recombinant human CYP3A4 expressed in baculosomes using Vivid BOMCC substrate blue measured every 30 sec for 30 mins by fluorescence assay
Cytochrome P450 2D6 [12] = biological target: T8, Cytochrome P450 2D6; test: Inhibition of recombinant human CYP2D6 expressed in baculosomes using Vivid EOMCC substrate blue measured every 30 sec for 30 mins by fluorescence assay
Cytochrome P450 3A4 [13] = biological target: T6, Cytochrome P450 3A4; test: Inhibition of CYP3A4 in human liver microsomes using midazolam as substrate
Cytochrome P450 3A4 [14] = biological target: T6, Cytochrome P450 3A4; test: Inhibition of CYP3A4 in human liver microsomes using midazolam as substrate preincubated for 10 mins followed by NADPH addition measured after 5 mins
Cytochrome P450 1A2 [15] = biological target: T1, Cytochrome P450 1A2; test: Inhibition of CYP1A2 in human liver microsomes using phenacetin as substrate by HPLC analysis
Cytochrome P450 2C9 [16] = biological target: T4, Cytochrome P450 2C9; test: Inhibition of CYP2C9 in human liver microsomes using tolbutamide as substrate by HPLC analysis
Cytochrome P450 2C19 [17] = biological target: T5, Cytochrome P450 2C19; test: Inhibition of CYP2C19 in human liver microsomes using (S)-mephenytoin as substrate by HPLC analysis
Cytochrome P450 2E1 [18] = biological target: T9, Cytochrome P450 2E1; test: Inhibition of CYP2E1 in human liver microsomes using chlorzoxazone as substrate by HPLC analysis

T9 sequence (P05181 whole entry): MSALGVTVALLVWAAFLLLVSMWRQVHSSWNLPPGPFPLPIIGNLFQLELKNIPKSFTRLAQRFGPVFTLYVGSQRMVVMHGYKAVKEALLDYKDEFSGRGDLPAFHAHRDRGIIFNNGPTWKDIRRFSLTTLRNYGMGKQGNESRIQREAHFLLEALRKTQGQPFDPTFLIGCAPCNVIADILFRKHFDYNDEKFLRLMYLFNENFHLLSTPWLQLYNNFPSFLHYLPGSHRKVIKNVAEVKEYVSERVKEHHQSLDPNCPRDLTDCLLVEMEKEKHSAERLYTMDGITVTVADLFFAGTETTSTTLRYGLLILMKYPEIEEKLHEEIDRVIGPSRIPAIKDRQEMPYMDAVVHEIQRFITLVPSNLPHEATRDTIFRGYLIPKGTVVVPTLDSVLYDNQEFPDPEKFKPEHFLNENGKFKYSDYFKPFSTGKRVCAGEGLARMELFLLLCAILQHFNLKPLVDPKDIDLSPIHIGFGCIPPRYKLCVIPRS
T5 sequence (P33261 whole entry): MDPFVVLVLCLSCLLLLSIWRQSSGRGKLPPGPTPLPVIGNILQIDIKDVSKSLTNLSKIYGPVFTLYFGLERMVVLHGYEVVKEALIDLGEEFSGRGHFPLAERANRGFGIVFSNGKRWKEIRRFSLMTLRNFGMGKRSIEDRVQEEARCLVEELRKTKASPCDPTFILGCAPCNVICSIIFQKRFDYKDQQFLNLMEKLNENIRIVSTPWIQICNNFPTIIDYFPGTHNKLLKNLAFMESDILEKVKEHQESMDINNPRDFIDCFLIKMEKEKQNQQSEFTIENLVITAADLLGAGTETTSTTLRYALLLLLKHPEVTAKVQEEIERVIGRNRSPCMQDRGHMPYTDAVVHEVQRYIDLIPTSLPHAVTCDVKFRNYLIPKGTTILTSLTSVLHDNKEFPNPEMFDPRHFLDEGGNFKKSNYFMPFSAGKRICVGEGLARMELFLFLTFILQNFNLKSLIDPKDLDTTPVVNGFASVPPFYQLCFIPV
T8 sequence (P10635 whole entry): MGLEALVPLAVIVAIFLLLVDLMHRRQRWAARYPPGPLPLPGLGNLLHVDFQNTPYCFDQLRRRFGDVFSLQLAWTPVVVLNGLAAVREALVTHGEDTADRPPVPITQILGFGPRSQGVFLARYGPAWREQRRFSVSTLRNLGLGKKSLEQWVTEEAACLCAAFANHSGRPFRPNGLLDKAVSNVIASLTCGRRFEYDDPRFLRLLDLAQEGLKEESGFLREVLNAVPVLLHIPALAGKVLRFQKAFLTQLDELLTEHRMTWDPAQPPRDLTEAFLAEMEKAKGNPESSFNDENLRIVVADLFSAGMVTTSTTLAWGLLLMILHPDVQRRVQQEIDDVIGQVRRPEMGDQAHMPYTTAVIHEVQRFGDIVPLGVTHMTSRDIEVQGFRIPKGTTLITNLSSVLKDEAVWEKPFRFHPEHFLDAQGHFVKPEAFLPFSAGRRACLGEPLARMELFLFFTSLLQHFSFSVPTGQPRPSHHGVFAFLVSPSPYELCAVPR
T4 sequence (P11712 whole entry): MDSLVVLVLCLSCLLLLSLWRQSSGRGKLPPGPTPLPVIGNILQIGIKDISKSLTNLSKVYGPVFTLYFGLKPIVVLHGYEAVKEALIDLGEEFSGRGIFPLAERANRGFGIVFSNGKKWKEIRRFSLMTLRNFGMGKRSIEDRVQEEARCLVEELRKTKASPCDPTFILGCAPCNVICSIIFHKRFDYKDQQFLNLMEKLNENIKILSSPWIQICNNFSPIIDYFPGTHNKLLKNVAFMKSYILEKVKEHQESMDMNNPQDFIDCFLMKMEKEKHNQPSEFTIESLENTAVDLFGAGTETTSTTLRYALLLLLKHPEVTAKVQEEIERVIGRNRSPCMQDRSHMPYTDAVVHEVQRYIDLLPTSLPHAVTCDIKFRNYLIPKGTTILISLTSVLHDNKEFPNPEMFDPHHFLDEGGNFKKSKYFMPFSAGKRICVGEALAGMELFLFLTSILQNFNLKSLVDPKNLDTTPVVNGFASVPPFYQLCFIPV
T6 sequence (P08684 whole entry): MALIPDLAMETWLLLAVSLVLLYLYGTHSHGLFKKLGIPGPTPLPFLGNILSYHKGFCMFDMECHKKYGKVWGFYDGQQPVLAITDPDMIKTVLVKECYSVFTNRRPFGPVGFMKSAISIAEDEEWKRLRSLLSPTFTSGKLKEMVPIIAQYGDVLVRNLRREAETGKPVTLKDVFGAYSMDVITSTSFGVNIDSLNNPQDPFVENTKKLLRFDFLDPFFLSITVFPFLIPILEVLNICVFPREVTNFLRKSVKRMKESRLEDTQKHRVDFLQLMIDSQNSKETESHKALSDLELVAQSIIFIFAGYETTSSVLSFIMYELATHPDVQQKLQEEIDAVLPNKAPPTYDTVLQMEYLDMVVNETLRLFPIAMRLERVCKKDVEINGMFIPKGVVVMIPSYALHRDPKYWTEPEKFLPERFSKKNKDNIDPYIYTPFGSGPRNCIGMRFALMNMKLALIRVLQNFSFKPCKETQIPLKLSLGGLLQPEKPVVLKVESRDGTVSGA

SMILES	IC50 (Cytochrome P450 1A2 [1]) [µM]	IC50 (Cytochrome P450 2B6) [µM]	IC50 (Cytochrome P450 2C8) [µM]	IC50 (Cytochrome P450 2C9 [2]) [µM]	IC50 (Cytochrome P450 2C19 [3]) [µM]	IC50 (Cytochrome P450 3A4 [4]) [µM]	IC50 (Cytochrome P450 2A6) [µM]	IC50 (Cytochrome P450 2D6 [5]) [µM]	IC50 (Cytochrome P450 2E1 [6]) [µM]	IC50 (Cytochrome P450 2C9 [7]) [µM]	IC50 (Cytochrome P450 2C19 [8]) [µM]	IC50 (Cytochrome P450 3A4 [9]) [µM]	IC50 (Cytochrome P450 3A4 [10]) [µM]	IC50 (Cytochrome P450 3A4 [11]) [µM]	further results
CCCCCCC[C@H](O)CC(=O)CCc1ccc(O)c(OC)c1	27.3	8.1	2.2	8.7	8.1	8.1	59	74.5	93.2	6.8	12.5	11.6	10.5	8.7	IC50 (Cytochrome P450 2D6 [12]): 42.7 µM
CCCCCCCCC[C@H](O)CC(=O)CCc1ccc(O)c(OC)c1		4.3	2	7.5	6.6	7.1	98.3	54.9		16.3	13.6	21.8	24.9	20.8	
CCCCC[C@H](O)CC(=O)CCc1ccc(O)c(OC)c1 [GINGEROL]		40.8								12.1	30.7	32	42.9	21.8	IC50 (Cytochrome P450 3A4 [13]): 73.4 µM
CCCCC/C=C/C(=O)CCc1ccc(O)c(OC)c1 [SHOGAOL]	2.5	5.8	2.9	3.3		8.3	83.3	87	76.1				4		IC50 (Cytochrome P450 3A4 [14]): 65.2 µM; IC50 (Cytochrome P450 1A2 [15]): 20.7 µM; IC50 (Cytochrome P450 2C9 [16]): 29.2 µM; IC50 (Cytochrome P450 2C19 [17]): 18.8 µM; IC50 (Cytochrome P450 2E1 [18]): 99.6 µM
